What all share (format): cell-based, human
The test system of test [1] is MDA-MB-231 cells. Put plainly: Cellular reactive oxygen species detection (DCFH-DA, flow cytometry). To be noted: PTX alone, 48 h. A general note: A flow cytometer gives signals particle by particle.
Test [2] concerns CD13 (APN) expression in MDA-MB-231 cells. The test can be described thus: Flow cytometry of APN expression. To be noted: PTX alone, 48 h. As to the method: (§1) The cells were seeded in 6-well plates (4 × 10^5 cells/well) and treated with tested compounds for 48 h. Then, cells were collected into 1.5 mL EP tubes, washed twice with PBS, and centrifuged at 2500rpm for 5minutes. Cells were resuspended with 100μlof PBS, then 2μL/tube of APN antibody was added, followed by incubation in dark for 30 minutes at 4°C. Then the cells were subjected to flow cytometry (FACSAria II, Becton-Dickinson) for the expression of APN.

The subject of test [3] is CD13 (APN) expression in MDA-MB-468 cells. Put plainly: Flow cytometry of APN expression. The conditions noted are these: PTX alone, 48 h. As to the method: as §1
Test [4] relates to MDA-MB-231 cells. The test can be described thus: MTT antiproliferative assay, chemotherapeutic drug with APN inhibitor. To be noted: chemotherapeutic drug. An excerpt:
(§2) The combination of APN inhibitor and paclitaxel (PTX), has been employed for the treatment of human breast cancer. In the current study, molecules with good APN inhibitory potency (D12, D14 and D16) were selected and used in combination with several chemotherapeutic drugs, such as PTX, EPB, cyclophosphamide (CTX) and carboplatin (CBP) to investigate its inhibitory effect on breast cancer. Human triple negative breast cancer cell (TNBC) lines MDA-MB-231 and MDA-MB-468 were utilized in the in vitro studies. […] It was also observed that the synthesized molecules enhanced chemotherapeutic drug sensitivity in a dose dependent manner. Therefore, further analysis was performed to examine the synergistic effects of the derived APN inhibitors and chemotherapeutic drugs.
(§3) Then, 10μL of MTT solution (5 mg/mL) were added to each well. After incubation for 4h, the medium was carefully removed, and 100 μL DMSO was added to each well and fully dissolved in vibration for 10min. The optical density (OD) at 490 nm and 630 nm were measured with a microplate Spectrophotometer (M5, MD). IC50 values were obtained from at least 3 independent experiments.
On the technique in general: Tetrazolium assays rely on reduction of a dye to a coloured formazan, in cell work by metabolically active cells.

Test [5] has as its system MDA-MB-468 cells. The description is as above. To be noted: chemotherapeutic drug.
Source text: as §2, §3

The test system of test [6] is MDA-MB-468 cells. Put plainly: Cellular reactive oxygen species detection (DCFH-DA, flow cytometry). To be noted: PTX alone, 48 h.

On to `CC(=O)O[C@H]1C(=O)[C@@]2(C)[C@H]([C@H](OC(=O)c3ccccc3)[C@]3(O)C[C@H](OC(=O)[C@H](O)[C@@H](NC(=O)c4ccccc4)c4ccccc4)C(C)=C1C3(C)C)[C@]1(OC(C)=O)CO[C@@H]1C[C@@H]2O` [PTX, Paclitaxel, reference compound], for which the “ROS levels compared to control group” value in the test with MDA-MB-231 cells [1] and in the test on MDA-MB-468 cells [6] was “increased ROS levels” in each case. The “APN expression relative to untreated control” value in test [2] and in test [3] was “up-regulated APN expression” each time. In addition, the “inhibitory potency among the tested chemotherapeutic drugs” value with MDA-MB-231 cells [4] and with MDA-MB-468 cells [5] was “highest inhibitory potency” each time.

Values taken from paper PMC9168271, “Discovery of Novel Tetrahydro-β-carboline Containing Aminopeptidase N Inhibitors as Cancer Chemosensitizers” (Frontiers in Oncology, 2022).
